{"source": "patent US12123019B2", "about": "“Uses of kinase inhibitors for inducing and maintaining pluripotency” (Whitehead Institute for Biomedical Research, priority 2014, dated 2024)", "key": {"[1]": {"test_system": "OCT4-ΔPE-GFP+ naïve human ESCs", "experiment": "Maintenance of OCT4-ΔPE-GFP+ naïve human ESCs with additional media additives or changed basal medium", "format": "cell-based", "details": "for proportion of OCT4-ΔPE-GFP+ cells: inhibitor included in 5i/L/A medium, three passages", "text": "The kinase inhibitors reported by Hanna and colleagues may have an additive effect in combination with the 5i/L/A medium. […] Another difference between the naïve human studies reported to date is the use of 20% knock-out serum replacement (KSR) or Albumax-containing medium (Gafni et al., 2013; Valamehr et al., 2014; Ware et al., 2014) vs. serum-free N2B27 medium (this study). The consequences of applying the inhibitor cocktail in the presence of 20% KSR was therefore investigated. […] It is concluded that the induction and maintenance of OCT4-ΔPE-GFP+ human ESCs is highly sensitive to the choice of basal medium."}, "[2]": {"test_system": "WIBR3 OCT4-ΔPE-GFP+ human ESCs", "experiment": "Viability screen and titration: viable (DAPI-) OCT4-ΔPE-GFP+ cells after DOX withdrawal in 2i/L/SB590885", "format": "cell-based", "details": "for concentration giving a significant improvement in the proportion of viable GFP+ cells (titration): titration of PD0325901, CHIR99021 and SB590885, two passages after DOX withdrawal", "description": "To screen for small molecules that support naïve human pluripotency, doxycycline was withdrawn from a clonal line of WIBR3 OCT4-ΔPE-GFP+ human ESCs derived in 2i/L/DOX. 24 h after Dox withdrawal, cells were dissociated in 0.25% trypsin/EDTA solution (Invitrogen) and seeded at a density of 5000 cells per individual well in 96 well plates on a MEF feeder layer in 2i/L supplemented with the ROCK-inhibitor Y-27632. After an additional 24 h, 2i/L medium in each individual 96 well was supplemented with a kinase inhibitor from the LINCS inhibitor library (Gray Laboratory, Dana Farber Cancer Institute, Boston, MA) at a final concentration of 1 μM. To improve experimental consistency the small molecule library was applied using the Caliper RapidPlate 96 well Liquid Handling System (Zymark, Westborough, MA). Briefly, a master plate containing 10 mM stock solution of the library in DMSO was first diluted to 100 μM in HEPES aqueous solution (daughter plate), and subsequently to 10 μM in N2B27 basal medium supplemented with 2i/L (granddaughter plate). This granddaughter plate was then diluted a further 10× in 2i/L medium, the final medium was pre-mixed and applied slowly to the 96 well assay plate. Following two medium changes during a seven day period the proportion of OCT4-ΔPE-GFP+ human ESCs in each well was assessed using the High-Throughput System on the LSRFortessa (Beckton-Dickinson, San Jose, CA). To screen for small molecules that improve the proportion of viable OCT4-ΔPE-GFP+ cells, this assay was modified by the addition of 1.0 μM SB590885 to each well and inclusion of a 10 minute DAPI (Life Technologies) staining prior to high-throughput FACS analysis. Viable cells were gated from the DAPI-negative fraction and subsequently assessed for GFP status.\nThis led us to consider whether other small molecules could cooperate with 2i/L/SB590885 to improve the fraction of viable GFP+ cells. Inclusion of a live/dead assay enhanced the resolution of the 96 well high-throughput FACS analysis, allowing for more sensitive discrimination between the proportion of viable OCT4-ΔPE-GFP+ cells cultured in 2i/L/DOX vs. 2i/L/SB590885 (FIG. 3A). This viability assay was included in a modified screen in which GFP+ cells were cultured for two passages after DOX withdrawal in 2i/L/SB590885 supplemented with the kinase inhibitor library (FIG. 3B-C and FIG. 10A). […] A titration of the concentrations of PD0325901, CHIR99021 and SB590885 was also performed during two passages after DOX withdrawal followed by high-throughput FACS analysis (FIG. 3D). […] This is reminiscent of recent evidence that lowered GSK3 inhibition reduces differentiation and enhances the self-renewal of rat ESCs (Meek et al., 2013). […]"}, "[3]": {"test_system": "transgene-dependent naïve human ES cells (subclone of WIBR3)", "experiment": "Titration and proliferation assay in transgene-dependent naïve human ES cell line after DOX withdrawal (GSK3/Wnt signal modulators)", "format": "cell-based", "details": "added to 4i/L/A: CHIR99021 1 μM replacing IM12, or IWR1 2.5 μM", "description": "A transgene-dependent naïve human embryonic stem (ES) cell line, a subclone of WIBR3, was used to titrate different concentrations of inhibitors in 5i/L/A (see Theunissen et al., Cell Stem Cell, 2014). The cell line used is dependent on Doxycycline (DOX) to maintain the expression of two lentiviral transgenes, KLF2 and NANOG. […] A titration assay was performed to determine the optimal concentrations of small molecule inhibitors to maintain naïve human DES cells. The cells were subject to sequential passaging by single cell dissociation at low density (1:10) under four conditions: 2i/L, 5i/L/A, t5i/L/A (0.2 μM GSK3 inhibitor IM12) and 4i/L/A (removal of GSK3 inhibitor IM12).\nThe proliferation of naïve human ES cells in the presence of different Wnt signal modulators was quantified after the withdrawal of DOX from the transgene-dependent cell line described above. In a six-well plate, 1×10^5 cells were seeded per well and cells were dissociated and re-seeded at a 1:5 density for three successive passages. Cell numbers at successive passages were recorded under six conditions (n=2 per group): 2i/L/DOX (control), 2i/L, 5i/L/A, 4i/L/A (removal of GSK3 inhibitor IM12), 4i/L/A+CHIR99021 (1 μM), and 4i/L/A+IWR1 (2.5 μM)."}, "[4]": {"test_system": "clonal line of OCT4-ΔPE-GFP+ cells derived in the absence of transgenes", "experiment": "Withdrawal of single kinase inhibitors or growth factors from 5i/L/FA medium", "format": "cell-based, human", "details": "for differentiation and expression of pluripotency genes: FGF and Activin A removed together from 5i/L/FA", "text": "To investigate the relative contribution of individual components in 5i/L/FA medium, single kinase inhibitors or growth factors were removed from a clonal line of OCT4-ΔPE-GFP+ cells derived in the absence of transgenes. […] Therefore, the maintenance of OCT4-ΔPE-GFP reporter activity is dependent primarily on MEK inhibition and BRAF inhibition, while robust proliferation of GFP+ cells requires ROCK inhibition. Recombinant FGF enhances the induction of naïve reporter activity, but can be omitted in established GFP+ cells."}, "OCT4-ΔPE-GFP+ human ESCs": {"test_system": "OCT4-ΔPE-GFP+ human ESCs", "experiment": "Validation of hit compounds in 6 well format: DOX withdrawal and culture in 2i/L plus hit compound", "format": "cell-based", "text": "To identify compounds that sustain OCT4-ΔPE-GFP activity in the absence of KLF2 and NANOG expression, a kinase inhibitor library was screened in the presence of 2i/L for a period of 7 days after DOX withdrawal in 96 well format (FIG. 2A). This screen identified 10 different hit compounds that partially rescued the proportion of GFP+ cells when assayed by high-throughput FACS analysis (FIG. 2B-C and FIG. 9A). Notable among these hits were four separate inhibitors of BRAF and four inhibitors of upstream receptor tyrosine kinases (RTKs), including DDR1, VEGFR1 and FGFR1. A validation experiment was then performed in 6 well format by withdrawing DOX and culturing the cells in 2i/L supplemented with each hit compound for up to 10 passages (FIG. 2D). Nearly all hit compounds maintained a proportion of GFP+ cells similar to that observed with DOX. […] Gene expression analysis 5 passages after DOX withdrawal confirmed the absence of KLF2 and NANOG transgene expression and retention of endogenous OCT4 and GFP transcripts (FIG. 2E and FIG. 9B). To validate these findings in an independent system DOX-inducible KLF2 and NANOG transgenes were introduced in a line of wild-type WIBR3 human ESCs. Upon application of DOX and 2i/L, dome-shaped colonies appeared that could be expanded clonally."}, "[5]": {"details": "three passages after withdrawal of the component from 5i/L/FA"}}, "data": [{"compound": "Cc1ccc(-n2nc(C(C)(C)C)cc2NC(=O)Nc2ccc(OCCN3CCOCC3)c3ccccc23)cc1", "note": "[BIRB796]", "values": [{"measurement": "proportion of OCT4-ΔPE-GFP+ cells", "setting": "[1]", "value": "did not affect"}]}, {"compound": "Cc1cnc(-c2cnc(NCCNc3ccc(C#N)cn3)nc2-c2ccc(Cl)cc2Cl)[nH]1", "note": "[CHIR99021]", "values": [{"measurement": "proportion of viable GFP+ cells", "setting": "[2]; higher concentrations of CHIR99021", "value": "opposite effect"}, {"measurement": "proportion of viable GFP+ cells", "setting": "[2]; lower concentrations of CHIR99021", "value": "improved the proportion of viable GFP+ cells"}, {"measurement": "concentration giving a significant improvement in the proportion of viable GFP+ cells (titration)", "setting": "[2]", "value": 0.3, "unit": "µM"}, {"measurement": "proliferation of naïve human cells (cell number)", "setting": "[3]", "value": "did not further stimulate the proliferation"}]}, {"compound": "Cc1[nH]c2ccccc2c1C1=C(NCCc2ccc(F)cc2)C(=O)N(C)C1=O", "note": "[IM12]", "values": [{"measurement": "morphology upon long-term culture without DOX", "setting": "[2]; CHIR99021 replaced with IM12", "value": "improved morphology"}]}, {"compound": "O=C(Nc1cccc2cccnc12)c1ccc(N2C(=O)[C@@H]3[C@H](C2=O)[C@@H]2C=C[C@H]3C2)cc1", "note": "[IWR1]", "values": [{"measurement": "proliferation of naïve human cells (cell number)", "setting": "[3]", "value": "did not further stimulate the proliferation"}]}, {"compound": "O=C(NOC[C@H](O)CO)c1ccc(F)c(F)c1Nc1ccc(I)cc1F", "note": "[PD0325901]", "values": [{"measurement": "concentration giving a significant improvement in the proportion of viable GFP+ cells (titration)", "setting": "[2]", "value": 1, "unit": "µM"}, {"measurement": "OCT4-ΔPE-GFP reporter activity", "setting": "[4]; [5]", "value": "rapid and widespread loss"}, {"measurement": "colony morphology", "setting": "[4]; [5]", "value": "rapid and widespread loss"}, {"measurement": "pluripotency gene expression", "setting": "[4]; [5]", "value": "rapid and widespread loss"}]}, {"compound": "CN(C)CCOc1ccc(-c2nc(-c3ccncc3)c(-c3ccc4c(c3)CC/C4=N\\O)[nH]2)cc1", "note": "[SB590885]", "values": [{"measurement": "colony morphology and proliferation", "setting": "OCT4-ΔPE-GFP+ human ESCs; 6 well, 2i/L plus hit compound, up to 10 passages without DOX", "value": "preserved the best colony morphology and proliferation"}, {"measurement": "colony morphology and expression of endogenous OCT4", "setting": "OCT4-ΔPE-GFP+ human ESCs; wild-type WIBR3 lines with DOX-inducible KLF2 and NANOG, maintained in 2i/L/SB590885 after DOX withdrawal", "value": "retaining both colony morphology and the expression of endogenous OCT4"}, {"measurement": "viability (FACS-based live/dead discrimination assay)", "setting": "[2]; cells maintained in 2i/L/SB590885", "value": "reduced viability"}, {"measurement": "concentration giving a significant improvement in the proportion of viable GFP+ cells (titration)", "setting": "[2]", "value": 0.5, "unit": "µM"}, {"measurement": "OCT4-ΔPE-GFP reporter activity", "setting": "[4]; [5]", "value": "rapid and widespread loss"}, {"measurement": "colony morphology", "setting": "[4]; [5]", "value": "rapid and widespread loss"}, {"measurement": "pluripotency gene expression", "setting": "[4]; [5]", "value": "rapid and widespread loss"}]}, {"compound": "O=C1c2ccccc2-c2n[nH]c3cccc1c23", "note": "[SP600125]", "values": [{"measurement": "expression of KLF4 and KLF2", "setting": "[1]; SP600125 added to 5i/L/A", "value": "increase in expression of KLF4 and KLF2"}, {"measurement": "proportion of OCT4-ΔPE-GFP+ cells", "setting": "[1]", "value": "did not affect"}]}, {"compound": "COc1ccc(N(C(=O)Oc2c(C)cccc2C)c2ccnc(Nc3ccc(N4CCN(C)CC4)cc3)n2)c(OC)c1", "note": "[WH-4-023]", "values": [{"measurement": "proportion of viable OCT4-ΔPE-GFP+ cells after DOX withdrawal", "setting": "[2]; 1 μM WH-4-023 combined with optimized concentrations of PD0325901, CHIR99021 and SB590885", "value": "further improved"}, {"measurement": "fraction of viable GFP+ cells", "setting": "[2]; two passages after DOX withdrawal in 2i/L/SB590885 supplemented with kinase inhibitor library", "value": "improved the fraction of viable GFP+ cells"}, {"measurement": "OCT4-ΔPE-GFP reporter activity", "setting": "[4]; [5]", "value": "slight reduction"}, {"measurement": "colony morphology", "setting": "[4]; [5]", "value": "change in morphology"}]}, {"compound": "CC(N)C1CCC(C(=O)Nc2ccncc2)CC1", "note": "(stereo not drawn) [Y-27632]", "values": [{"measurement": "proportion of viable GFP+ cells", "setting": "[2]; Y-27632 (10 μM) added to 2i/L/SB590885 (0.5 μM), two passages", "value": "improved the proportion of viable GFP+ cells"}, {"measurement": "proliferation", "setting": "[4]; [5]", "value": "significant reduction"}]}, {"compound": "Activin A: cytokine (Peprotech, 20 ng/mL)", "values": [{"measurement": "differentiation and expression of pluripotency genes", "setting": "[4]", "value": "more differentiation and reduced expression"}, {"measurement": "OCT4-ΔPE-GFP reporter activity", "setting": "[4]; [5]", "value": "did not cause a reduction"}]}, {"compound": "FGF: recombinant fibroblast growth factor 2 (R&D systems, 8 ng/mL)", "values": [{"measurement": "differentiation and expression of pluripotency genes", "setting": "[4]", "value": "more differentiation and reduced expression"}, {"measurement": "any of the parameters examined", "setting": "[4]; withdrawal of FGF from 5i/L/FA", "value": "no apparent effect"}]}, {"compound": "hLIF: recombinant human LIF (made in-house)", "values": [{"measurement": "OCT4-ΔPE-GFP reporter activity", "setting": "[4]; [5]", "value": "unaffected"}, {"measurement": "pluripotency gene expression", "setting": "[4]; [5]", "value": "unaffected"}]}, {"compound": "insulin: media additive", "values": [{"measurement": "beneficial effect of additive", "setting": "[1]; insulin added", "value": "A beneficial effect was not observed"}]}]}
